From US20230286995A1, “METABOLICALLY STABLE PYRIMIDINYL DIHYDROQUINOXALINONES AS TUBULIN POLYMERIZATION INHIBITORS” (UNIVERSITY OF TENNESSEE RESEARCH FOUNDATION, priority 2022, published 2023)
Read-outs that look alike come from different tables or passages of the source.

Columns and labels:
MDA-MB-231 = assay: Cytotoxicity assay (MTS, 72 h); format: cell-based; conditions: Homo sapiens
MDA-MB-453 = assay: Cytotoxicity assay (MTS, 72 h); format: cell-based, human
Mia PaCa-2 = assay: Cytotoxicity assay (MTS, 72 h); format: cell-based; conditions: Homo sapiens, Table 6, read-out: IC50 (nM) Pancreatic cancer Mia PaCa-2
PANC-1 = assay: Cytotoxicity assay (MTS, 72 h); format: cell-based; conditions: Homo sapiens, Table 6, read-out: IC50 (nM) Pancreatic cancer PANC-1
Procedure: Mia PaCa-2 and PANC-1 cells were seeded in 96-well plates at 4000 and 5000 cells per well, respectively.
(§1) Cytotoxicity Assay. […] Each experiment consisted of four replicates.

PC3 = assay: Cytotoxicity assay (MTS, 72 h); format: cell-based; conditions: Homo sapiens, PC-3; Table 6; read-out: IC50 (nM) Prostate cancer PC3
From the text: as §1

PC3/TxR = assay: Cytotoxicity assay (MTS, 72 h); format: cell-based; conditions: Homo sapiens, Table 6, paclitaxel-resistant, read-out: IC50 (nM) Prostate cancer PC3/TxR
Procedure: Biology. Cell culture and Reagents. […] MIA Paca-2 pancreatic cancer cells were cultured in media also supplemented with 2.5% horse serum. PANC-1 and PC-3 were cultured in RPMI 1640 medium (Gibco, Carlsbad, Calif.) supplemented with 10% FBS and 1% antibiotic/antimycotic mixture. […] For biological experiments, pyrimidine dihydroquinoxalinone derivatives were dissolved in DMSO to create 20 mM stock solutions and stored at −20° C. until use.
as §1

A375 = assay: Cytotoxicity assay (MTS, 72 h); conditions: Homo sapiens;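 also: compounds tested from 0.1 nM up to 3 µM in four replicate wells, with absorbance read at 490 nm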
M14 = assay: Cytotoxicity assay (MTS, 72 h); conditions: Homo sapiens
[1] = test system: melanoma, breast, pancreatic and prostate cancer cell lines; assay: Cytotoxicity of Example 8 compounds; format: cell-based, human
From the text: as §1

RPMI-7951 = assay: Cytotoxicity assay (MTS, 72 h); format: cell-based; conditions: Homo sapiens, Table 1, read-out: IC50 (nM) Melanoma RPMI-7951
MDA-MB-468 = assay: Cytotoxicity assay (MTS, 72 h); format: cell-based, human; conditions: Table 1, read-out: IC50 (nM) Breast MDA-MB-468
logP = format: physicochemical; conditions: Table 1; method not described
[2] = test system: human melanoma and breast cancer cell lines; assay: Cytotoxicity, all tested cell lines of Table 1; format: cell-based; conditions: Homo sapiens, melanoma and breast lines of Table 1; read-out: IC50 values, range over all tested cell lines
[3] = MDA-MB-231, read-out: IC50 (nM) Breast Cancer MDA-MB-231, Table 6
[4] = Homo sapiens, MDA-MB-453, Table 6, read-out: IC50 (nM) Breast Cancer MDA-MB-453
[5] = A-375, read-out: IC50 (nM) Melanoma Cancer A375, Table 6
[6] = M14, read-out: IC50 (nM) Melanoma Cancer M14
[7] = MDA-MB-231, read-out: IC50 (nM) Breast MDA-MB-231, Table 1
[8] = Homo sapiens, MDA-MB-453, Table 1, read-out: IC50 (nM) Breast MDA-MB-453
[9] = A-375, read-out: IC50 (nM) Melanoma A375, Table 1
[10] = M14, read-out: IC50 (nM) Melanoma M14

| Compound | IC50 (MDA-MB-231; [3]) [nM] | IC50 (MDA-MB-453; [4]) [nM] | IC50 (Mia PaCa-2) [nM] | IC50 (PANC-1) [nM] | IC50 (PC3) [nM] | IC50 (PC3/TxR) [nM] | IC50 (A375; [5]) [nM] | IC50 (M14; [6]) [nM] | cytotoxic potency [1] | IC50 (RPMI-7951) [nM] | IC50 (MDA-MB-231; [7]) [nM] | IC50 (MDA-MB-453; [8]) [nM] | IC50 (MDA-MB-468; Homo sapiens, MDA-MB-468) [nM] | logP (logP) | IC50 [2] [nM] | IC50 (A375; [9]) [nM] | IC50 (M14; [10]) [nM] | IC50 (MDA-MB-453; Table 1, read-out: IC50 (nM) Breast MDA-MB-453) [nM] | IC50 (MDA-MB-468) [nM] |
| --- | --- | --- | --- | --- | --- | --- | --- | --- | --- | --- | --- | --- | --- | --- | --- | --- | --- | --- | --- |
| COc1ccc2c(c1)NC(=O)CN2c1nc(N2CCOCC2)nc2c1CCC2 [Compound 12e, 7-methoxy-4-(2-morpholino-6,7-dihydro-5H-cyclopenta[d]pyrimidin-4-yl)-3,4-dihydroquinoxalin-2(1H)-one] | 25.8 ± 4.6 | 17.6 ± 4 | 44.4 ± 7.1 | 56.2 ± 9 | 23.9 ± 3.6 | 14.4 ± 2.2 | ~13.6 | 18.3 ± 3.7 | – | – | – | – | – | – | – | – | – | – | – |
| COc1ccc2c(c1)NC(=O)CN2c1nc(NCCO)nc2c1CCC2 [Compound 12m, 4-(2-((2-hydroxyethyl)amino)-6,7-dihydro-5H-cyclopenta[d]pyrimidin-4-yl)-7-methoxy-3,4-dihydroquinoxalin-2(1H)-one] | 8.6 ± 1.2 | 6.4 ± 1.6 | 23.6 ± 3.5 | 43.1 ± 8.2 | 14.8 ± 1.8 | 15 ± 1.6 | ~8.6 | 7 ± 1 | – | – | – | – | – | – | – | – | – | – | – |
| COc1ccc(Nc2nc(OC)nc3c2CCC3)c(N)c1 [Compound 20, 4-methoxy-N1-(2-methoxy-6,7-dihydro-5H-cyclopenta[d]pyrimidin-4-yl)benzene-1,2-diamine] | – | – | – | – | – | – | – | – | little to no cytotoxic activity | – | – | – | – | – | – | – | – | – | – |
| COc1ccc2c(c1)NC(=O)CN2c1cc(C)nc2cccnc12 [Compound 5s, 7-methoxy-4-(2-methyl-1,5-naphthyridin-4-yl)-3,4-dihydroquinoxalin-2(1H)-one] | – | – | – | – | – | – | – | – | – | 14.4 ± 2.4 | 23.9 ± 4.1 | 12.9 ± 2.3 | 18.5 ± 4.1 | 1.96 | 13 to 24 | 15 ± 2.1 | 18.3 ± 2.9 | – | – |
| COc1ccc2c(c1)NC(=O)CN2c1nc(Cl)nc2c1COC2 [Compound 5p, 4-(2-chloro-5,7-dihydrofuro[3,4-d]pyrimidin-4-yl)-7-methoxy-3,4-dihydroquinoxalin-2(1H)-one] | – | – | – | – | – | – | – | – | – | 27.2 ± 3.9 | 36.8 ± 4.5 | – | – | 1.47 | 19 to 37 | 31.8 ± 4.4 | 23.3 ± 3 | 19.3 ± 3.5 | 22.8 ± 4.6 |
| COc1ccc2c(c1)NC(=O)CN2c1nc(OC)nc2c1CCC2 [Compound 12b, 7-methoxy-4-(2-methoxy-6,7-dihydro-5H-cyclopenta[d]pyrimidin-4-yl)-3,4-dihydroquinoxalin-2(1H)-one] | 7.5 ± 1.5 | 3.4 ± 0.8 | 9 ± 1.3 | 9.4 ± 1.5 | 7.2 ± 1.2 | 4.7 ± 0.7 | ~3.2 | 5.3 ± 1.1 | – | – | – | – | – | – | – | – | – | – | – |
| COc1ccc2c(c1)NC(=O)CN2c1nc(SC)nc2c1CCC2 [Compound 10, 7-methoxy-4-(2-(methylthio)-6,7-dihydro-5H-cyclopenta[d]pyrimidin-4-yl)-3,4-dihydroquinoxalin-2(1H)-one] | 4.3 ± 0.7 | 1.4 ± 0.6 | 3.9 ± 0.6 | 3.4 ± 0.6 | 2.4 ± 0.4 | 1.6 ± 0.2 | 3.4 ± 0.5 | 3.2 ± 0.5 | – | – | – | – | – | – | – | – | – | – | – |
| CCNc1nc(N2CC(=O)Nc3cc(OC)ccc32)c2cccnc2n1 [Compound 5u, 4-(2-(ethylamino)pyrido[2,3-d]pyrimidin-4-yl)-7-methoxy-3,4-dihydroquinoxalin-2(1H)-one] | – | – | – | – | – | – | – | – | – | 4.8 ± 0.8 | 6.7 ± 1.2 | 4.5 ± 0.9 | – | 2.51 | 0.4 to 26 | 5.8 ± 1 | 5.4 ± 0.7 | – | 10.5 ± 1.6 |
